According to patent US11059795B2, “Androgen receptor modulators and methods for their use” (ESSA Pharma, Inc., priority 2018, dated 2021):
pIC50: −log10 of the molar value. Read-outs that look alike come from different tables or passages of the source.

Key:
androgen receptor (AR) = biological target: T1, androgen receptor (AR) (Homo sapiens, UniProt P10275, T878A); experiment: Androgen-induced PSA (6.1 kb)-luciferase reporter assay in LNCaP cells; format: cell-based; details: LNCaP cells transfected with PSA (6.1 kb)-luciferase reporter, R1881 1 nM, 24 h
T1 construct: LNCaP cells were transiently transfected with the PSA (6.1 kb)-luciferase reporter for 24 h; endogenous in cells; host or cells: LNCaP
T1 sequence (P10275 1-920 T878A): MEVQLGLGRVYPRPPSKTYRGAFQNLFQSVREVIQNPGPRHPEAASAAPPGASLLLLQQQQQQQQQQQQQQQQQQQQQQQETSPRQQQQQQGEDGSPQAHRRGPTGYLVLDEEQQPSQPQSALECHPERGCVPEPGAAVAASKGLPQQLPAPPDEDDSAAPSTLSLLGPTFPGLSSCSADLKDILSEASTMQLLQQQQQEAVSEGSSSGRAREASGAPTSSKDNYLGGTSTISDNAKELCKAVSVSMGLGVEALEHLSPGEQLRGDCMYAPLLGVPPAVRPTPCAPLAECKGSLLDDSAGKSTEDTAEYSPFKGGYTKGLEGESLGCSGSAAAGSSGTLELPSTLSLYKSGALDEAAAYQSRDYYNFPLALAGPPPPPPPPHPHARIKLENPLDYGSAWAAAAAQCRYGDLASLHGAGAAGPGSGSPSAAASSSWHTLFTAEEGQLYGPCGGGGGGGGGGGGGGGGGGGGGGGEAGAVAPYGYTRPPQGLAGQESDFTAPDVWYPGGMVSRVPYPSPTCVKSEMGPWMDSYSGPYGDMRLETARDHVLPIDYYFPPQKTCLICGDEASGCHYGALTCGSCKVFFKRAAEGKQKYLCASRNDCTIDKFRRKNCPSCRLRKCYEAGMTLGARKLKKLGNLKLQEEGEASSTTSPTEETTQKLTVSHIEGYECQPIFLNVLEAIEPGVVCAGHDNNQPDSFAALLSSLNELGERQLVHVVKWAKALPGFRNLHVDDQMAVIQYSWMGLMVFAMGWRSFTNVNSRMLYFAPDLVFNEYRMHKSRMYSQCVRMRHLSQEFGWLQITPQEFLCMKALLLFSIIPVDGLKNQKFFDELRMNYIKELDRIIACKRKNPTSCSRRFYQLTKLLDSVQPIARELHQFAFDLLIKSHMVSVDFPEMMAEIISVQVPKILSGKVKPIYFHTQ
Procedure, shortened: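 LNCaP cells carrying a PSA (6.1 kb) promoter-luciferase reporter with AREs; androgen-induced firefly luciferase read from lysates for 10 s. RLU normalized to protein content; IC50 calculated from the normalized data.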

[1] = Microsomal stability assay, human liver microsomes; format: in vitro ADME; details: for microsomal CLint at 1 μM: pH 7.4, 1 μM compound, 0.5 mg/mL protein, 37° C., read-out: HLM +/− NADPH: Clint (μL/min/mg protein); for half-life at 1 μM: pH 7.4, read-out: Liver microsome T½ (min) Human
Procedure, shortened: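 Compound at 1 μM was incubated at 37° C with 0.5 mg/mL liver microsomes and 1 mM NADPH and/or 1 mM UDPGA (with alamethicin) in 100 mM potassium phosphate pH 7.4, 3 mM MgCl2. Samples were taken at 0, 15, 30 and 60 min and measured by LC/MS/MS. t½ came from compound loss relative to 0 min, and Clint was scaled with 45 mg microsomal protein/g liver.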

SMILES | pIC50 (androgen receptor (AR); read-out: PSA-Luc IC50) | pIC50 (androgen receptor (AR); read-out: PSA-Luc IC50 Range) | microsomal CLint at 1 μM [1] | half-life at 1 μM [1]
CC(C)(c1ccc(OCc2nc(S(C)(=O)=O)cs2)cc1)c1cc(Cl)c(OCCCl)c(C#N)c1 [Compound A136, 3-Chloro-2-(2-chloroethoxy)-5-(2-(4-((4-(methylsulfonyl)thiazol-2-yl)methoxy)phenyl)propan-2-yl)benzonitrile] | – | 5.70 to 6.30 | 12 to 48 µL/min/mg | –
CC(C)(c1ccc(OCc2ocnc2S(C)(=O)=O)cc1)c1cc(Cl)c(OCCCl)c(Cl)c1 [Compound A13, 5-((4-(2-(3,5-dichloro-4-(2-chloroethoxy)phenyl)propan-2-yl)phenoxy)methyl)-4-(methylsulfonyl)oxazole] | 6.23 | 5.70 to 6.30 | < 12 µL/min/mg | > 120 min
CC(C)(c1ccc(OCc2ccnc(NS(C)(=O)=O)n2)cc1)c1cc(Cl)c(OCCCl)c(C#N)c1 [Compound A109, N-(4-((4-(2-(3-chloro-4-(2-chloroethoxy)-5-cyanophenyl)propan-2-yl)phenoxy)methyl)pyrimidin-2-yl)methanesulfonamide] | 6.27 | 5.70 to 6.30 | < 12 µL/min/mg | > 120 min
CC(C)(c1ccc(OC[C@H](O)CNS(C)(=O)=O)cc1)c1cc(Cl)c(OC[C@H](O)CCl)c(Cl)c1 [X, reference compound] | 5.98 | – | – | > 120 min
CCS(=O)(=O)Nc1nc(COc2ccc(C(C)(C)c3cc(Cl)c(OCCCl)c(C#N)c3)cc2)co1 [Compound A126] | – | 5.70 to 6.30 | < 12 µL/min/mg | –
CCS(=O)(=O)Nc1nccc(COc2ccc(C(C)(C)c3cc(Cl)c(OCCCl)c(C#N)c3)cc2)n1 [Compound A131] | – | 5.70 to 6.30 | < 12 µL/min/mg | –
C[C@H](Oc1ccc(C(C)(C)c2cc(Cl)c(OCCCl)c(C#N)c2)cc1)c1ccnc(NS(C)(=O)=O)n1 (single isomer, unassigned) [Compound A170] | – | 5.70 to 6.30 | < 12 µL/min/mg | –
CC(C)(c1ccc(OCc2ccnc(NS(C)(=O)=O)n2)cc1)c1cc(Cl)c(OCCCl)c(Cl)c1 [Compound A74, N-(4-((4-(2-(3,5-dichloro-4-(2-chloroethoxy)phenyl)propan-2-yl)phenoxy)methyl)pyrimidin-2-yl)methanesulfonamide] | 6.18 | 5.70 to 6.30 | < 12 µL/min/mg | > 120 min

Now from value to compound:

pIC50 (androgen receptor (AR); read-out: PSA-Luc IC50) | pIC50 (androgen receptor (AR); read-out: PSA-Luc IC50 Range) | microsomal CLint at 1 μM [1] | half-life at 1 μM [1] | SMILES
6.20 | 5.70 to 6.30 | < 12 µL/min/mg | > 120 min | CC(C)(c1ccc(OCc2coc(NS(C)(=O)=O)n2)cc1)c1cc(Cl)c(OCCCl)c(Cl)c1 [Compound A38, N-(4-((4-(2-(3,5-dichloro-4-(2-chloroethoxy)phenyl)propan-2-yl)phenoxy)methyl)oxazol-2-yl)methanesulfonamide]
6.69 | > 6.30 | < 12 µL/min/mg | > 120 min | CC(C)(c1ccc(OCc2ncc(S(C)(=O)=O)s2)cc1)c1cc(Cl)c(OCCCl)c(C#N)c1 [Compound A93, 3-chloro-2-(2-chloroethoxy)-5-(2-(4-((5-(methylsulfonyl)thiazol-2-yl)methoxy)phenyl)propan-2-yl)benzonitrile]
– | > 6.30 | < 12 µL/min/mg | – | Cc1cnc(NS(C)(=O)=O)nc1COc1ccc(C(C)(C)c2cc(Cl)c(OCCCl)c(C#N)c2)cc1 [Compound A122, N-(4-((4-(2-(3-Chloro-4-(2-chloroethoxy)-5-cyanophenyl)propan-2-yl)phenoxy)methyl)-5-methylpyrimidin-2-yl)methanesulfonamide]
6.40 | > 6.30 | < 12 µL/min/mg | > 120 min | CC(C)(c1ccc(OCc2ocnc2S(C)(=O)=O)cc1)c1cc(Cl)c(OCCCl)c(C#N)c1 [Compound A28, 3-chloro-2-(2-chloroethoxy)-5-(2-(4-((4-(methylsulfonyl)oxazol-5-yl)methoxy)phenyl)propan-2-yl)benzonitrile]
